Results as given in US20120141440A1, “FOAMYVIRUS VECTORS AND METHODS OF USE” (priority 2009, published 2012).

System: 293T cells
Experiment: Western blot of protein expressed from wild-type and human codon optimized foamyvirus gag, pol and env constructs
Assay type: cell-based
Settings: optimized vs wild-type sequence
From the text: To assessing the amount of protein that was present in virus producing cells upon transfection of the human codon usage-optimized cDNAs in comparison with the wild-type sequences, 293T packaging cells were transfected with equal amounts of the corresponding plasmids in sequential dilutions. DNA (pUC19) from a cloning vector was utilized to keep the absolute amount of DNA transfected into 293T cells the same. For FV gag and pol, the only difference between the two plasmids was the optimization of the FV gene for human codon usage. For the PFV env gene, the human optimized ORF in a vector with slice donor and acceptor sites was compared to the non-optimzed sequence expressed without splice sites in the same vector. Additionally, the expression of optimized simian FV (SFV) env contained on pUC19, like the above comparisons, was compared to a non-optimized SFV env contained on a pCL (Promega).

SFV-1 env: Homo sapiens optimized Env cDNA from Simian Foamy Virus (SFV-1) (SEQ. ID. No. 4)
protein levels increased through optimization of the FV genes for human codon usage: increased
